{
  "source": "patent US6265418A",
  "about": "“N-acylamino acid amide compounds and intermediates for preparation thereof” (Ube Industries, Ltd., priority 1997, dated 2001)",
  "key": {"[1]": {"tested_on": "platelet aggregation induced by ADP", "assay": "ADP (adenosine diphosphate) induced-platelet aggregation inhibiting activity (in vitro, platelet-rich plasma)", "assay_type": "cell-based, human (healthy volunteer)", "settings": "ADP final concentration 10 μM, 37° C., pre-incubation 5 minutes, prime (') = converted into carboxylic acid compound before test, read-out: in vitro Platelet aggregation inhibition activity IC50", "protocol": "ADP (adenosine diphosphate) induced-platelet aggregation inhibiting activity\n(1) Preparation Method of Platelet-rich Plasma\nBy using 0.1 volume of 3.8% sodium citrate as an anticoagulant, citrate-added blood collected from an elbow vein of a healthy volunteer was centrifuged at 500×g (=1600 rpm) for 3 minutes and the supernatant was fractionated as platelet-rich plasma (PRP). The under layer was further centrifuged at 1800×g (3200 rpm) for 15 minutes and the supernatant was fractionated as platelet-poor blood plasma (PPP) and used for ADP aggregation (coagulation) measurement.\n(2) Measurement Method of ADP-induced Platelet Aggregation\nPRP obtained as mentioned above was diluted by the platelet-poor plasma (PPP) to adjust the number of platelet to 30 to 40×10^4 /μL, and platelet aggregation induced by ADP was measured by using an aggrigometer (available from NBS Co., Hematracer Va.). First, 185 μL of PRP was placed in a glass cuvette for exclusive use, 5 μL of a test compound solution or a solvent (control) for preparing test compound was added thereto, and the mixture was pre-incubated while stirring (1000 ppm) at 37° C. for 5 minutes. Thereafter, 10 μL (final concentration 10 μM) of an ADP solution was added thereto to induce platelet aggregation. Change in transmittance caused by platelet aggregation was recorded for 3 minutes after addition of ADP.\nTransmittances of PRP and PPP were made 0 and 100%, respectively, and the maximum transmittance after adding ADP was made the maximum aggregation ratio. The maximum aggregation ratio when the test compound was added divided by that ratio when the solvent for preparation was added was shown in terms of a percentage, and a 50% inhibiting concentration (IC50) was calculated.\nIncidentally, when the test compound has a protected carboxyl group, the sample was applied to the test after carrying out the following deprotection treatment. First, the test compound was dissolved in ethanol, and hydrolyzed (at room temperature for 2 hours) by adding an equal volume of a 0.1 N aqueous sodium hydroxide solution. Then, the solution was neutralized by adding a 0.1 N aqueous hydrochloric acid solution, and the resulting solution was diluted by using a preparation solvent (composition: ethanol/0.1 N aqueous sodium hydroxide solution/0.1 N aqueous hydrochloric acid solution=1/1/1) to a predetermined concentration to make a test compound solution."}, "[2]": {"tested_on": "platelet aggregation induced by ADP", "assay": "Ex vivo ADP induced-platelet aggregation inhibiting activity after oral administration to monkeys", "assay_type": "in vivo", "settings": "cynomolgus monkeys, ADP 20 μM", "text": "(§1) Ex Vivo ADP Induced-platelet Aggregation Inhibiting Activity\nAs a test animal, 2 to 3 monkeys (cynomolgus monkeys) born in China were used as one group.\n(§2) Test compounds were suspended in a dimethylsulfoxide: 0.5% aqueous sodium carboxymethylcellulose solution (=1:99) and orally administered. To the animals for control group, a dimethylsulfoxide: 0.5% aqueous sodium carboxymethylcellulose solution (=1:99) containing no test compound was orally administered.\n(§3) With regard to the respective groups, 5 ml of blood was each collected from femoral vein at the predetermined times before and after administration of the test compound by using a syringe to which 3.8% of sodium citrate was added. The resulting citrate-added blood was centrifuged at 80×g (=700 rpm) for 10 minutes, and then, the supernatant was fractionated as platelet rich plasma (PRP). The under layer was further centrifuged at 2000×g (3200 rpm) for 10 minutes and the supernatant was fractionated as platelet-poor plasma (PPP) and used for ADP aggregation (coagulation) measurement.\n(§4) PRP was diluted by PPP to adjust the number of platelet to 30 to 40×10^4 /μL, and platelet aggregation induced by ADP was measured by using a nephelometric platelet aggregation meter (available from NBS Co., Hematracer 801). First, 190 μL of PRP was placed in a glass cuvette for exclusive use and pre-incubated while stirring (1000 ppm) at 37° C. for 5 minutes. Thereafter, 10 μL (final concentration 20 μM) of an ADP solution was added thereto to induce platelet aggregation. Change in transmittance caused by platelet aggregation was recorded for 3 minutes after addition of ADP.\n(§5) Transmittances of PRP and PPP were made 0 and 100%, respectively, and the maximum transmittance after adding ADP was made the maximum aggregation ratio.\n(§6) The platelet aggregation inhibiting ratio was shown in terms of a percentage of the maximum aggregation ratio when the test compound was added divided by the maximum aggregation ratio when the solvent for preparation was added."}, "[3]": {"tested_on": "platelet aggregation induced by ADP and epinephrine", "assay": "Ex vivo ADP induced-platelet aggregation inhibiting activity after oral administration to dogs", "assay_type": "in vivo", "settings": "beagle dogs, ADP 10 μM + epinephrine 1 μM", "protocol": "as §1\nAs a test animal, 2 to 3 beagle dogs were used as one group.\nas §2\nas §3, with “cervical” for “femoral”, “platelet-rich” for “platelet rich”\nas §4, with “an aggrigometer” for “a nephelometric platelet aggregation meter”, “μL” for “μL (final concentration 20 μM)”, “solution (final concentration 10 μM) and an epinephrine solution (final concentration 1 μM)” for “solution”\nas §5, §6"}, "fibrinogen receptor": {"tested_on": "fibrinogen receptor", "settings": "reported in Thrombosys, Res., 56, 6, 687 (1989); cited from earlier work"}, "platelet aggregation": {"tested_on": "platelet aggregation", "settings": "reported in Thrombosys, Res., 56, 6, 687 (1989); cited from earlier work"}},
  "note": "Like-named read-outs stand apart in the source and are kept apart here.",
  "data": [
    {"molecule": "N=C(N)c1ccc(C(=O)N[C@@H](Cc2ccc([N+](=O)[O-])cc2)C(=O)N2CCc3sc(CC(=O)O)cc3C2)cc1", "note": "[Example I-5, 5-[N-(4-amidinobenzoyl)-L-4-nitrophenylalanyl]-4,5,6,7-tetrahydrothieno[3,2-c]pyridin-2-acetic acid.trifluoroacetate]", "values": [
      {"measurement": "IC50", "setting": "[1]; Homo sapiens, Platelet", "result": 30, "unit": "nM"}
    ]},
    {"molecule": "N=C(N)c1ccc(C(=O)N[C@@H](Cc2ccccc2)C(=O)N2CCc3nn(CC(=O)O)cc3C2)cc1", "note": "[Example I-128, 5-[N-(4-amidinobenzoyl)-L-phenylalanyl]-4,5,6,7-tetrahydropyrazolo[4,3-c]pyridin-2-acetic acid.trifluoroacetate]", "values": [
      {"measurement": "IC50", "setting": "[1]; Homo sapiens, Platelet", "result": 50, "unit": "nM"}
    ]},
    {"molecule": "CCOC(=O)Cn1cc2c(n1)CCN(C(=O)[C@H](Cc1ccc([N+](=O)[O-])cc1)NC(=O)c1ccc(C(=N)NC(=O)OCC)cc1)C2", "note": "[Example I-77, Ethyl 5-[N-[4-(N-ethoxycarbonylamidino)benzoyl]-L-4-nitrophenylalanyl]-4,5,6,7-tetrahydropyrazolo[4,3-c]pyridin-2-acetate]", "values": [
      {"measurement": "platelet aggregation inhibiting activities even in oral administration", "setting": "[2]", "result": "excellent platelet aggregation inhibiting activities"},
      {"measurement": "sustained activity", "setting": "[2]", "result": "excellent sustained activity"},
      {"measurement": "ex vivo Platelet aggregation inhibiting ratio", "setting": "[3]; 1 mg/kg p.o., 1 hr", "result": 60, "unit": "%"},
      {"measurement": "ex vivo Platelet aggregation inhibiting ratio", "setting": "[3]; 1 mg/kg p.o., 4 hr", "result": 85, "unit": "%"},
      {"measurement": "ex vivo Platelet aggregation inhibiting ratio", "setting": "[3]; 1 mg/kg p.o., 8 hr", "result": 63, "unit": "%"}
    ]},
    {"molecule": "N=C(N)c1ccc(C(=O)N[C@@H](Cc2ccc(OCc3ccccc3)cc2)C(=O)N2CCc3nn(CC(=O)O)cc3C2)cc1", "note": "[Example I-138, 5-[N-(4-amidinobenzoyl)-L-O-benzyltyrosyl)-4,5,6,7-tetrahydropyrazolo[4,3-c]pyridin-2-acetic acid.trifluoroacetate]", "values": [
      {"measurement": "IC50", "setting": "[1]; Homo sapiens, Platelet", "result": 60, "unit": "nM"}
    ]},
    {"molecule": "CCOC(=O)Cn1cc2c(n1)CCN(C(=O)[C@H](Cc1ccc([N+](=O)[O-])cc1)NC(=O)c1ccc(C(=N)N)cc1)C2", "note": "[Example I-76, Ethyl 5-[N-(4-amidinobenzoyl)-L-4-nitrophenylalanyl]-4,5,6,7-tetrahydropyrazolo[4,3-c]pyridin-2-acetate.trifluoroacetate]", "values": [
      {"measurement": "platelet aggregation inhibiting activities even in oral administration", "setting": "[2]", "result": "excellent platelet aggregation inhibiting activities"},
      {"measurement": "sustained activity", "setting": "[2]", "result": "excellent sustained activity"}
    ]},
    {"molecule": "N=C(N)c1ccc(C(=O)N[C@@H](Cc2ccc([N+](=O)[O-])cc2)C(=O)N2C3CCC2c2cn(CC(=O)O)nc2C3)cc1", "note": "(stereo partly drawn) [Example I-91, 5-[N-(4-amidinobenzoyl)-L-4-nitrophenylalanyl]-4,6-ethano-4,5,6,7-tetrahydropyrazolo[4,3-c]pyridin-2-acetic acid]", "values": [
      {"measurement": "IC50", "setting": "[1]; Homo sapiens, Platelet", "result": 50, "unit": "nM"}
    ]},
    {"molecule": "Arg-Gly-Asp-Ser (RGDS; printed: Arg-Gly-Asp-Ser) [peptide derivative such as Arg-Gly-Asp-Ser (hereinafter abbreviated to as RGDS)]", "values": [
      {"measurement": "IC50", "setting": "[1]", "result": 4000, "unit": "nM"},
      {"measurement": "antagonistic action against a fibrinogen receptor", "setting": "fibrinogen receptor", "result": "antagonistic action against a fibrinogen receptor"},
      {"measurement": "platelet aggregation inhibiting action", "setting": "platelet aggregation", "result": "platelet aggregation inhibiting action"}
    ]},
    {"molecule": "CCOC(=O)Cn1cc2c(n1)CCN(C(=O)[C@H](Cc1ccc([N+](=O)[O-])cc1)NC(=O)c1ccc(C(=N)NC(=O)Oc3ccccc3)cc1)C2", "note": "[Example I-115, Ethyl 5-[N-[4-(N-phenoxycarbonylamidino)benzoyl]-L-4-nitrophenylalanyl)-4,5,6,7-tetrahydropyrazolo[4,3-c]pyridin-2-acetate]", "values": [
      {"measurement": "ex vivo Platelet aggregation inhibiting ratio", "setting": "[3]; 0.3 mg/kg p.o., 1 hr", "result": 35, "unit": "%"},
      {"measurement": "ex vivo Platelet aggregation inhibiting ratio", "setting": "[3]; 0.3 mg/kg p.o., 4 hr", "result": 43, "unit": "%"},
      {"measurement": "ex vivo Platelet aggregation inhibiting ratio", "setting": "[3]; 0.3 mg/kg p.o., 8 hr", "result": 22, "unit": "%"}
    ]},
    {"molecule": "C[C@H](NC(=O)c1ccc(C(=N)N)cc1)C(=O)N1CCc2nn(CC(=O)O)cc2C1", "note": "[Example I-126, 5-[N-(4-amidinobenzoyl)-L-alanyl]-4,5,6,7-tetrahydropyrazolo[4,3-c]pyridin-2-acetic acid.trifluoroacetate]", "values": [
      {"measurement": "IC50", "setting": "[1]; Homo sapiens, Platelet", "result": 80, "unit": "nM"}
    ]},
    {"molecule": "CCOC(=O)Cn1cc2c(n1)CCN(C(=O)[C@H](Cc1ccc([N+](=O)[O-])cc1)NC(=O)c1ccc(C(=N)NO)cc1)C2", "note": "[Example I-85, Ethyl 5-[N-[4-(N-hydroxyamidino)benzoyl]-L-4-nitrophenylalanyl]-4,5,6,7-tetrahydropyrazolo[4,3-c]pyridin-2-acetate]", "values": [
      {"measurement": "ex vivo Platelet aggregation inhibiting ratio", "setting": "[3]; 0.3 mg/kg p.o., 1 hr", "result": 61, "unit": "%"},
      {"measurement": "ex vivo Platelet aggregation inhibiting ratio", "setting": "[3]; 0.3 mg/kg p.o., 4 hr", "result": 94, "unit": "%"},
      {"measurement": "ex vivo Platelet aggregation inhibiting ratio", "setting": "[3]; 0.3 mg/kg p.o., 8 hr", "result": 41, "unit": "%"}
    ]},
    {"molecule": "N=C(N)c1ccc(C(=O)N[C@@H](Cc2ccc([N+](=O)[O-])cc2)C(=O)N2CCc3nn(CC(=O)O)cc3C2)cc1", "note": "[Example I-79, 5-[N-(4-amidinobenzoyl)-L-4-nitrophenylalanyl]-4,5,6,7-tetrahydropyrazolo[4,3-c]pyridin-2-acetic acid.trifluoroacetate]", "values": [
      {"measurement": "IC50", "setting": "[1]; Homo sapiens, Platelet", "result": 20, "unit": "nM"}
    ]},
    {"molecule": "CN(C(=O)c1ccc(C(=N)N)cc1)[C@@H](Cc1ccc([N+](=O)[O-])cc1)C(=O)N1CCc2nn(CC(=O)O)cc2C1", "note": "[Example I-136, 5-[N-(4-amidinobenzoyl)-N-methyl-L-4-nitrophenylalanyl)-4,5,6,7-tetrahydropyrazolo[4,3-c]pyridin-2-acetic acid.trifluoroacetate]", "values": [
      {"measurement": "IC50", "setting": "[1]; Homo sapiens, Platelet", "result": 60, "unit": "nM"}
    ]}
  ]
}
